Reference: patent US20250288536A1, “PROTEIN PARTICLES INCLUDING AN ACTIVE AGENT AND METHODS OF MAKING AND USING THE SAME” (Dairy Mangement Inc., priority 2022, published 2025)
Read-outs that look alike come from different tables or passages of the source.

Columns and labels:
[1] = Particle size by DLS before and after ultrasonication (Example 2); conditions: after ultrasonication
[2] = Scanning electron microscopy (SEM) particle size; conditions: 1 mg/mL dispersion

Molecule | change of antioxidant activity (ABTS) with HPH treatment (0.01 mg/mL) | ABTS radical scavenging activity (concentration above 0.1 mg/mL) | colloidal dispersion stability when adjusting pH to 7 [1] | change of antioxidant activity (ABTS) with HPH treatment (after vs before HPH) | ABTS radical scavenging activity (concentration of 0.5 mg/mL) | particle size by SEM (dry state) ([2]; HPH sample) | particle size by SEM (dry state) ([2]; NOHPH sample)
N[C@@H](Cc1c[nH]c2ccccc12)C(=O)O [Trp, tryptophan] | increased | around 100% | remained stable | – | – | – | –
α-lactalbumin | – | – | – | increased | 20% | ~80 nm | ~40 nm
